Results on 25 molecules are retold here after publication PMC3100252, “A theoretical entropy score as a single value to express inhibitor selectivity” (BMC Bioinformatics, 2011).

Like-named read-outs stand apart in the source and are kept apart here.

Test [1] has as its system 290 kinases (excluding mutants). Format: binding. The settings on record: for Ka-Gini: Gini score calculated directly on Kas of the Ambit dataset (Kds of ref 5); for entropies (selectivity entropy, Ssel): calculated from Kds of the Ambit dataset (ref 5), 290 kinases. The source says:
Having defined the entropy, we next investigated its performance relative to the most widely-used methods, on a public profiling dataset of 38 inhibitors on 290 non-mutant kinases (Table 1 and Additional file 1). […] To this we added a Ka-Gini value and the selectivity entropy. The Ka-Gini is a Gini score directly calculated on Kas, without reverting to %-inhibition values (see below). […] In addition, to get an overview of the profiling raw data, we appended an activity-based heat map (Uitdehaag_S1).
(§1) It is worth to note that the partition coefficient is the same as ϕl in our entropy equation (eq. 2).
The Gini score was calculated from data on %-inhibition. […] In addition, to work more directly with Kds, we also introduce a Ka-Gini score, in which association constants are used for rank-ordering the kinase profile. […] All calculations were done in Microsoft Excel. […]

For test [2] the test system is unchanged. The settings on record: cited from earlier work.
The test system of the next test is 222 human kinases. As to the kind of experiment: Millipore kinase profiling (radioactive filter binding activity assay at [ATP] = KM,ATP) and selectivity metrics calculated from it. Format: biochemical. Details: selectivity score: scale not given here. The settings on record: for Ka-Gini score / Pmax / S10x / selectivity score: calculated from Millipore activity data; for selectivity entropy: calculated from Millipore activity data (pEC50), [ATP] = KM,ATP.
Source text: As a next step we selected 16 compounds from the public profile (Ambit), and measured activity data on these using a different profiling service (Millipore, data available as Additional file 2). […] Also for these new data, we calculated the selectivity metrics (Uitdehaag_S2). In the ideal case, the selectivity values are similar irrespective of profiling technology (in the same way that a Kd value is ideally independent of laboratory and assay format). The data of both methods are plotted in Figure 2.
as §1
The Gini score was calculated from data on %-inhibition. […] In addition, to work more directly with Kds, we also introduce a Ka-Gini score, in which association constants are used for rank-ordering the kinase profile. […] All calculations were done in Microsoft Excel.
For comparing profiles across methods (Figure 2), we selected 16 kinase inhibitors of the Ambit profile (Table 2) and submitted these to the kinase profiling service from Millipore (http://www.millipore.com/drugdiscovery/svp3/kpservices, data available as Additional file 2). Both profiling methods are described earlier and differ (among other variations) in the following way: Ambit uses a competitive binding setup in absence of ATP on kinases from T7 or HEK293 expression systems. Millipore uses a radioactive filter binding activity assay, with kinases purified from Escherichia coli or baculovirus expression systems.

Setting [3] is: Ambit dataset, 38 inhibitors on 290 non-mutant kinases, values taken from earlier work.
[4] abbreviates: Ambit dataset, fraction of kinases hit at 10 times the Kd of the target, values taken from earlier work.
Where [5] appears, read: Ambit dataset, values taken from earlier work.
Where [6] appears, read: Ambit dataset, fraction of kinases hit below 3 μM, values taken from earlier work.

For `CC1(C)CNc2cc(NC(=O)c3cccnc3NCc3ccncc3)ccc21` [AMG-706], in test [1], the Ka-Gini is listed as 0.97 and the “entropies (selectivity entropy, Ssel)” value is 2.36. Moreover, the Gini in test [2] (setting [3]) is on record as 0.82. The S10x in test [2] (setting [4]) is listed as 0.04. In addition, the “Pmax (partition index)” value in test [2] (setting [5]) is 0.22. Besides, in test [2], the “S3uM (selectivity score S(3 μM))” value is reported as 0.09.

For the molecule `CCN1CCN(Cc2ccc(NC(=O)Nc3ccc(Oc4cc(NC)ncn4)cc3)cc2C(F)(F)F)CC1` [AST-487], in test [1], the Ka-Gini is given as 0.95 and the “entropies (selectivity entropy, Ssel)” value is on record as 2.74. For the same molecule, in test [2] (setting [3]), the Gini was 0.73. Besides, the S10x in test [2] (setting [4]) was 0.04. In addition, the “S3uM (selectivity score S(3 μM))” value in test [2] (setting [6]) is listed as 0.45. In addition, the “Pmax (partition index)” value in test [2] (setting [5]) is on record as 0.11.

Regarding `Cn1cnc2c(F)c(Nc3ccc(Br)cc3Cl)c(C(=O)NOCCO)cc21` [AZD6244], in the test on 222 human kinases, the Ka-Gini score is on record as 1.000, the Pmax was 0.999, the S10x was 0.002 and the selectivity entropy is on record as 0.020.

With `CN1CCN(c2ccc3nc(-c4c(N)c5c(F)cccc5[nH]c4=O)[nH]c3c2)CC1` [CHIR-258], the Ka-Gini in test [1] is on record as 0.97. Also, the Gini in test [2] (setting [3]) is recorded as 0.76. In addition, the S10x in test [2] (setting [4]) was 0.01.

Turning to `C=CC(=O)Nc1cc2c(Nc3ccc(F)c(Cl)c3)ncnc2cc1OCCCN1CCOCC1` [CI-1033], the Ka-Gini in test [1] is recorded as 0.99. Further, in test [2] (setting [3]), the Gini is reported as 0.72.

With `C[C@@H]1CCN(C(=O)CC#N)C[C@@H]1N(C)c1ncnc2[nH]ccc12` [CP-690550, tasocitinib], the Gini in test [2] (setting [3]) is 0.66. Further, in the test on 222 human kinases, the Ka-Gini score is on record as 0.995, the Pmax was 0.481 and the S10x is listed as 0.005.

As for `COCC(=O)NC/C=C/c1ccc2ncnc(Nc3ccc(Oc4ccc(C)nc4)c(C)c3)c2c1` [CP-724714], in test [1], the Ka-Gini is recorded as 0.99 and the “entropies (selectivity entropy, Ssel)” value was 1.10. In addition, the Gini in test [2] (setting [3]) is listed as 0.49. The S10x in test [2] (setting [4]) is listed as 0.01. Also, the “S3uM (selectivity score S(3 μM))” value in test [2] (setting [6]) was 0.02. Besides, in test [2] (setting [5]), the “Pmax (partition index)” value was 0.33.

`CCOc1cc2ncc(C#N)c(Nc3ccc(F)c(Cl)c3)c2cc1NC(=O)/C=C/CN(C)C` [EKB-569]: in test [1], the Ka-Gini is 0.99 and the “entropies (selectivity entropy, Ssel)” value is recorded as 0.89. Further, the Gini in test [2] (setting [3]) is 0.78. For the same molecule, the S10x in test [2] (setting [4]) is on record as 0.00. Besides, in test [2] (setting [6]), the “S3uM (selectivity score S(3 μM))” value is listed as 0.18. In addition, the “Pmax (partition index)” value in test [2] (setting [5]) was 0.67.

For the molecule `C#Cc1cccc(Nc2ncnc3cc(OCCOC)c(OCCOC)cc23)c1` [Erlotinib], in test [1], the Ka-Gini is 0.99 and the “entropies (selectivity entropy, Ssel)” value is 0.88. In addition, in test [2] (setting [3]), the Gini is reported as 0.75. Further, in test [2] (setting [4]), the S10x is recorded as 0.00. Also, in test [2] (setting [5]), the “Pmax (partition index)” value was 0.67. The “S3uM (selectivity score S(3 μM))” value in test [2] is 0.15.

As to `CN1CC[C@H](c2c(O)cc(O)c3c(=O)cc(-c4ccccc4Cl)oc23)[C@H](O)C1` [Flavopiridol], the Ka-Gini in test [1] was 0.95. For the same molecule, in test [2] (setting [3]), the Gini is recorded as 0.77.

In the case of `COc1ccc(COc2ccc(Cc3cnc(N)nc3N)cc2OC)cc1` [GW-2580], in test [1], the Ka-Gini is reported as 0.99 and the “entropies (selectivity entropy, Ssel)” value was 0.26. Also, the Gini in test [2] (setting [3]) was 0.54. Besides, the S10x in test [2] (setting [4]) is reported as 0.00. The “S3uM (selectivity score S(3 μM))” value in test [2] (setting [6]) is 0.01. Moreover, the “Pmax (partition index)” value in test [2] (setting [5]) was 0.92.

`Cc1ccc(Nc2nccc(N(C)c3ccc4c(C)n(C)nc4c3)n2)cc1S(N)(=O)=O` [GW-786034]: in test [1], the Ka-Gini is listed as 0.97 and the “entropies (selectivity entropy, Ssel)” value is 2.06. The Gini in test [2] (setting [3]) is given as 0.80. Further, the S10x in test [2] (setting [4]) is recorded as 0.02. Besides, in test [2] (setting [6]), the “S3uM (selectivity score S(3 μM))” value is listed as 0.21. Besides, the “Pmax (partition index)” value in test [2] (setting [5]) is 0.33.

On to `COc1cc2ncnc(Nc3ccc(F)c(Cl)c3)c2cc1OCCCN1CCOCC1` [Gefitinib], for which the Gini in test [2] (setting [3]) was 0.65.

With `Cc1ccc(NC(=O)c2ccc(CN3CCN(C)CC3)cc2)cc1Nc1nccc(-c2cccnc2)n1` [Imatinib, imatinib], in test [2], the Gini is 0.79 and the S10x is recorded as 0.02.

With `Nc1nc(Nc2ccc(S(N)(=O)=O)cc2)nn1C(=O)c1c(F)cccc1F` [JNJ-7706621], in test [1], the Ka-Gini was 0.87 and the “entropies (selectivity entropy, Ssel)” value is recorded as 3.73. Besides, the Gini in test [2] (setting [3]) is 0.74. Further, the S10x in test [2] (setting [4]) is 0.08. For the same molecule, the “Pmax (partition index)” value in test [2] (setting [5]) was 0.10. Further, in test [2], the “S3uM (selectivity score S(3 μM))” value was 0.37.

For `CN(C)C[C@@H]1CCn2cc(c3ccccc32)C2=C(C(=O)NC2=O)c2cn(c3ccccc23)CCO1` [LY-333531], in test [1], the Ka-Gini was 0.98. Moreover, in test [2] (setting [3]), the Gini is 0.76.

Take `CS(=O)(=O)CCNCc1ccc(-c2ccc3ncnc(Nc4ccc(OCc5cccc(F)c5)c(Cl)c4)c3c2)o1` [Lapatinib]: the Ka-Gini in test [1] is 0.99. Further, the Gini in test [2] (setting [3]) is recorded as 0.57.

Turning to `O=C(NOC[C@H](O)CO)c1ccc(F)c(F)c1Nc1ccc(I)cc1F` [PD-0325901], in the test with 222 human kinases, the Ka-Gini score is reported as 1.000, the Pmax is listed as 0.857, the S10x is listed as 0.002 and the selectivity score is listed as 0.005. Moreover, in the test on 222 human kinases, the selectivity entropy is listed as 0.550.

Take `CO[C@@H]1[C@H](N(C)C(=O)c2ccccc2)C[C@H]2O[C@]1(C)n1c3ccccc3c3c4c(c5c6ccccc6n2c5c31)C(=O)NC4` [PKC-412]: the Ka-Gini in test [1] is listed as 0.88. The Gini in test [2] (setting [3]) is 0.71.

Consider `Clc1ccc(Nc2nnc(Cc3ccncc3)c3ccccc23)cc1` [PTK-787], for which the Gini in test [2] is on record as 0.71.

With `Oc1ccc(-c2nc(-c3ccncc3)c(-c3ccc(F)cc3)[nH]2)cc1` [SB-202190], in test [1], the Ka-Gini is on record as 0.97 and the “entropies (selectivity entropy, Ssel)” value is on record as 2.08. Moreover, the Gini in test [2] (setting [3]) is 0.76. Besides, the S10x in test [2] (setting [4]) was 0.02. Besides, the “Pmax (partition index)” value in test [2] (setting [5]) is reported as 0.35. Besides, in test [2], the “S3uM (selectivity score S(3 μM))” value is recorded as 0.09.

As to `C[S+]([O-])c1ccc(-c2nc(-c3ccncc3)c(-c3ccc(F)cc3)[nH]2)cc1` (stereo not shown) [SB-203580], in test [2] (setting [3]), the Gini is on record as 0.77. Also, in test [2] (setting [4]), the S10x is reported as 0.02. Besides, in the test with 222 human kinases, the Ka-Gini score is given as 0.987, the Pmax is given as 0.342 and the S10x is given as 0.016.

In the case of `CC(C)(C)c1cnc(CSc2cnc(NC(=O)C3CCNCC3)s2)o1` [SNS-032], the Ka-Gini in test [1] was 0.97.

As for `CN[C@@H]1C[C@H]2O[C@@](C)([C@@H]1OC)n1c3ccccc3c3c4c(c5c6ccccc6n2c5c31)C(=O)NC4` [Staurosporine], the Gini in test [2] (setting [3]) is listed as 0.35. The S10x in test [2] (setting [4]) was 0.50.

`Cc1cn(-c2cc(NC(=O)c3ccc(C)c(Nc4nccc(-c5cccnc5)n4)c3)cc(C(F)(F)F)c2)cn1` [nilotinib]: in the test on 222 human kinases, the Ka-Gini score is listed as 0.980, the Pmax was 0.208, the S10x is reported as 0.027 and the selectivity score is given as 0.095. In addition, the selectivity entropy in the test on 222 human kinases was 2.360.
